From article PMC4809498, “Artonin E Induces Apoptosis via Mitochondrial Dysregulation in SKOV-3 Ovarian Cancer Cells” (PLoS ONE, 2016)
≈ marks a conversion by molar mass, not a printed value.

Columns and labels:
[1] = test system: Human periodontal ligament fibroblasts; assay: MTT cell viability assay, periodontal fibroblasts; format: cell-based; settings: Human periodontal fibroblast, 24 h treatment
Experimental: (§1) Metastatic ovarian adenocarcinoma (SKOV-3) and normal Chinese hamster ovary (CHO) cell lines were originally obtained from the American Type Culture Collection (ATCC; Manassas, VA). SKOV-3 cells were cultured in McCoy’s 5A medium and CHO cells were cultured in F12K medium. A human periodontal ligament fibroblast cell line was purchased from Lonza, USA and maintained in stroma cell basal medium. T1074 (normal immortalized human ovarian surface epithelial cell line) was originally purchased from Applied Biological Materials (abm®) Canada and cultured in Prigrow 1 medium.
(§2) The inhibitory effects of artonin E and two positive controls paclitaxel and carboplatin were examined by MTT assay. Cells at a density of 5×10^3cells/well were placed in a 96-well plate and left for 24 h to attach. The attached cells were exposed to artonin E, paclitaxel, and carboplatin at different concentrations and incubated for 24, 48, and 72 h. Subsequently, 20 μL of 5 mg/mL MTT solution was added after drug treatment and the resulting mixture was incubated for 4 h to form purple formazan. Afterward, 100 μL of dimethyl sulfoxide (DMSO) was transferred into each well to dissolve the purple formazan, and results were measured using a microplate reader (Tecan Infinite M 200 PRO, Männedorf, Switzerland) at an absorbance of 570 nm. […]

[2] = test system: CHO cells; assay: MTT cell viability assay, CHO; format: cell-based, Chinese hamster; settings: Cricetulus griseus, 24 h treatment
Experimental: as §1, §2

[3] = test system: SKOV-3 cells; assay: Cell cycle analysis by flow cytometry; format: cell-based, human; settings: SKOV-3, 8 μg/mL, 72 h after treatment
Experimental: SKOV-3 cells at a concentration of 5×10^5 cells were plated into a T75cm^2 flask and incubated overnight to allow attachment. The attached cells were treated with 8 μg/mL of artonin E at different time points. After treatment, the cells were trypsinized and centrifuged at 1,500 rpm for 10 min. The fresh pellets were washed twice with PBS, fixed with 500 μL of 70% cold ethanol, and incubated at −20°C overnight. The remaining ethanol was then removed and the cells were resuspended in PBS containing 20 μL of RNase A (10 μg/mL) and 2 μL of PI (2.5 μg/mL). The resulting mixture was incubated for 30 min at 37°C in the dark. Samples were immediately analyzed using FACS Canto 11 Becton-Dickinson flow cytometry. For each sample, 10,000 cells were measured. ModFit LT software (Verity Software House, Topsham, ME) was used to analyze the percentage of cells at different phases.

[4] = test system: cytochrome c; assay: Cytochrome c releasing apoptosis assay (Western blot of fractions); format: cell-based, human
Experimental: Cytochrome c releasing apoptosis assay kit (ab65311) was purchased from abcam® (Cambridge, UK). The assay was conducted according to the manufacturer’s instruction. Briefly, SKOV-3 cells were induced with artonin E at different time points. The induced and un-induced cells were collected and centrifuged at […] for 5 minutes at 4°C. The cells were washed twice with 10 mL of ice-cold PBS, centrifuged and collected the pellet. The fresh pellets were then re-suspended with 1.0 mL of 1X cytosol extraction buffer mix containing DTT and Protease Inhibitor and incubated on ice for 10 minutes. Cells were then Dounce-homogenized before centrifuging at 7,000×g for 10 min at 4°C. The supernatant were collected and saved as cytosolic fractions. The remaining pellets were resuspended in 0.1 mL mitochondrial extraction buffer, vortexed for 10 seconds and saved as mitochondrial fractions. Both cytosolic and mitochondrial fractions were applied for protein analysis and proceeded with standard Western blot procedure.
SKOV-3 cells were plated in a 75cm^2 culture flask and exposed to artonin E for 24, 48, and 72 h. […] Protein concentration was determined using a BCA protein assay reagent kit (Bio-Rad, USA). […] The protein bands were detected using pico or femto chemiluminescence (ECL system) and visualized using a UV gel documentation system. […]

[5] = test system: caspase-9; assay: Colorimetric caspase-9 activation assay; format: cell-based, human; settings: SKOV-3, 8 μg/mL, from 24 h, prolonged exposure
Experimental: Calorimetric assay of the activation of caspases-3, -8, and -9 was conducted using R & D system kit, USA. Briefly, in a T75cm^2 flask 90% confluent SKOV-3 cells were induced with artonin E for 24, 48, and 72 h. The induced cells were trypsinized and centrifuged at 1,800 rpm for 10 min. The fresh pellets were washed with cold PBS and immediately lysed with protein lysis buffer. The cell lysate was then kept on ice for 10 min, centrifuged at 10,000 g for 15 min, and transferred into a new tube. The fresh cell lysate (50 μL), which contained 100–200 μg of protein, was added into a 96-well plate in triplicate. Fifty microliters of reaction buffer and 5 μL of caspase were then transferred into each designated well before incubating the plate in a CO2 incubator at 37°C for 2 h. A microplate reader (Tecan Infinite M 200 PRO, Männedorf, Switzerland) was used for analysis at a wavelength of 405 nm.

[6] = test system: caspase-8; assay: Western blot, caspase-8; format: cell-based, human; settings: SKOV-3, 8 μg/mL, after 48 and 72 h
Experimental: (§3) SKOV-3 cells were plated in a 75cm^2 culture flask and exposed to artonin E for 24, 48, and 72 h. Lysis buffer (50 mM Tris–HCl, pH 8.0; 120 mM NaCl, 0.5% NP-40; and 1 mM PMSF) was used to extract the total protein. Protein concentration was determined using a BCA protein assay reagent kit (Bio-Rad, USA). Equal amounts of protein (40 μg) extract were subjected to SDS-PAGE and electroblotted onto a polyvinylidenedifluoride membrane (Bio-Rad). Blots were then blocked with 5% non-fat milk in TBS-Tween buffer 7 (0.12 M Tris-base, 1.5 M NaCl, and 0.1% Tween 20) for 1 h at room temperature. After incubating with the appropriate primary antibody overnight at 4°C, the blots were washed and then incubated with horseradish peroxidase conjugated secondary antibody for 1 h at room temperature. The protein bands were detected using pico or femto chemiluminescence (ECL system) and visualized using a UV gel documentation system. The subsequent primary antibodies, which include those for β-actin (1:10,000), Bax (1:10,000), Bcl-2 (1:10,000), HSP-70 (1:10,000), survivin (1:10,000),caspase -3 (1:10,000), caspase -8 (1:10,000), caspase -9 (1;10,000) and cytochrome c (1:200) were purchased from Abcam, Cambridge, United Kingdom.

[7] = test system: Bcl-2; assay: Western blot, Bcl-2; format: cell-based, human; settings: SKOV-3, 8 μg/mL
Experimental: as §3

[8] = test system: Bax; assay: Western blot, Bax; format: cell-based, human; settings: SKOV-3, 8 μg/mL, time-dependent
Experimental: as §3

[9] = set-up: method as in PMID 17855020; settings: cited from earlier work

- stimulation of caspase-9 [5]: increased significantly
SMILES: CC(C)=CCc1c(-c2cc(O)c(O)cc2O)oc2c3c(cc(O)c2c1=O)OC(C)(C)C=C3 [Artonin E, artonin E]
- IC50 [1]: 67 ± 1 µg/mL (≈ 154 µM)
- IC50 [2]: 57.6 ± 2 µg/mL (≈ 132 µM)
- accumulation of cells arrested at the S phase [3]: significantly (p<0.05) increased
- expression level of cytochrome c in cytosolic fraction ([4]; SKOV-3, 8 μg/mL, 24, 48, 72 h): increase
- expression level of cytochrome c in mitochondrial fraction ([4]; SKOV-3, 8 μg/mL, time-dependent (24, 48, 72 h)): significantly (p<0.05) decreased
- protein expression level of caspase-8 [6]: up-regulated
- Bcl-2 level ([7]; 24 h post treatment): significantly lower
- Bcl-2 level ([7]; after 48 h and 72 h): almost diminished
- expression of Bax [8]: upregulates
- radical scavenging against the DPPH radical [9]: strong radical scavenging properties
